Results published in the kinase profiling compilation of Christmann-Franck et al. (2016).
“And” between values parts separate entries of the source, which are not always exact repeats. Identical values can stand only once. Values belong to the molecule of their own block, whether it stands above or below them.

Experiments:
Assay in all cases: Caliper, Mobility shift assay off-chip
RPS6KA1 KD1 KD2 (human) = RPS6KA1 KD1 KD2 (human) (UniProt Q15418)
FYN (human) = FYN (human) (UniProt P06241)
SRC (human) = SRC (human) (UniProt P12931)
PRKCB1 (human) = PRKCB1 (human) (UniProt P05771)
Sequence of PRKCB1 (human) (P05771 whole entry, looked up): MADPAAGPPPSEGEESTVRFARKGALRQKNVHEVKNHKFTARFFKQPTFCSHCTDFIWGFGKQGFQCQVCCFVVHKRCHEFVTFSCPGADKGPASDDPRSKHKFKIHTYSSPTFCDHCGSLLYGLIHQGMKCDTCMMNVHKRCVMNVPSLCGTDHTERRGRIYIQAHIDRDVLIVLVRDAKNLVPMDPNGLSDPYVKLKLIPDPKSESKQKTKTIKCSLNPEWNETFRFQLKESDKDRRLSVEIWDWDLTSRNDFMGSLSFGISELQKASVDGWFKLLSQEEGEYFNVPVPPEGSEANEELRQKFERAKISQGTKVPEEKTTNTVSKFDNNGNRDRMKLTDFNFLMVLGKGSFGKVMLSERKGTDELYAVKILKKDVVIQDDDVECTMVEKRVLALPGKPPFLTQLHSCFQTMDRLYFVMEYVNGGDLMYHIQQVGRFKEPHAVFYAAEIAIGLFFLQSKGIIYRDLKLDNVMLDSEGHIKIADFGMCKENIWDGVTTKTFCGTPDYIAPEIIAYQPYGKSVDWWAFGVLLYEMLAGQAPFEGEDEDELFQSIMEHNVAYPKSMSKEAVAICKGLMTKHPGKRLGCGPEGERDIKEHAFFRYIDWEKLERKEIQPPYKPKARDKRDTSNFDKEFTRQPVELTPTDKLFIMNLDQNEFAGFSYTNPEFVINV

[1] = test system: ABL1 (human), P00519 [Q252H]
AKT3 (human) = AKT3 (human) (UniProt Q9Y243)
ROCK2 (human) = ROCK2 (human) (UniProt O75116)
BTK (human) = BTK (human) (UniProt Q06187)
RAF1 (human) = RAF1 (human) (UniProt P04049)
AKT1 (human) = AKT1 (human) (UniProt P31749)
Sequence of AKT1 (human) (P31749 whole entry, looked up): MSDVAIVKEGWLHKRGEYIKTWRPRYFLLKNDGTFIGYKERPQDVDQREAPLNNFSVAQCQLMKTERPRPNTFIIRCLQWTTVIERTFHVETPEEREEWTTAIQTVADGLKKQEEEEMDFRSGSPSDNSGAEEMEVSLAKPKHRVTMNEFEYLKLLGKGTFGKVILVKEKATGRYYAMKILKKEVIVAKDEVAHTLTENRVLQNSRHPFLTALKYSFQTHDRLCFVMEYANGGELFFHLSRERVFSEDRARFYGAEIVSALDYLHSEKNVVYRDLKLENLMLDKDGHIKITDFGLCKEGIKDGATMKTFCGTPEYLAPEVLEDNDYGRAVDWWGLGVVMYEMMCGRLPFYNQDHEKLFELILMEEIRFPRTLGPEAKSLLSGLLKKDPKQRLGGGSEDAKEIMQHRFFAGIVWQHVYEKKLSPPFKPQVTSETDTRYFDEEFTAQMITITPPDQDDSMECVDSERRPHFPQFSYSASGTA

PRKG1 (human) = PRKG1 (human) (UniProt Q13976)
BMX (human) = BMX (human) (UniProt P51813)
PIM2 (human) = PIM2 (human) (UniProt Q9P1W9)
PRKCH (human) = PRKCH (human) (UniProt P24723)
FGFR2 (human) = FGFR2 (human) (UniProt P21802)
CSNK1A1 (human) = CSNK1A1 (human) (UniProt P48729)
CHEK1 (human) = CHEK1 (human) (UniProt O14757)
RPS6KA3 KD1 KD2 (human) = RPS6KA3 KD1 KD2 (human) (UniProt P51812)
EGFR (human) = EGFR (human) (UniProt P00533); conditions: compound 0.1 µM
SGK3 (human) = SGK3 (human) (UniProt Q96BR1)
Sequence of SGK3 (human) (Q96BR1 whole entry, looked up): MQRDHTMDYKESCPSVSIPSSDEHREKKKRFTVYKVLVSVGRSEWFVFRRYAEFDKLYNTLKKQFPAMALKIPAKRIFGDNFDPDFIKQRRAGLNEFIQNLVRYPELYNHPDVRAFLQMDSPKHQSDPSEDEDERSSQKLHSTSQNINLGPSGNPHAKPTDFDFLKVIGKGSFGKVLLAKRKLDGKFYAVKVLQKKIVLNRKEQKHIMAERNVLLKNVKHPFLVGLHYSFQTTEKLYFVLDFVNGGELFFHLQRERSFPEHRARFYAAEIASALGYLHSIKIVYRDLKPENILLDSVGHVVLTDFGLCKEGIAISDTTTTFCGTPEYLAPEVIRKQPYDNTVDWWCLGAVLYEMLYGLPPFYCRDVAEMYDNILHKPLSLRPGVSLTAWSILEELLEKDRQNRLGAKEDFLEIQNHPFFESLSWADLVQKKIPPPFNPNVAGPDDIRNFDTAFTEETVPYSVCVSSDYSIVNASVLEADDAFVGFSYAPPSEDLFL

NEK2 (human) = NEK2 (human) (UniProt P51955)
RPS6KA4 KD1 KD2 (human) = RPS6KA4 KD1 KD2 (human) (UniProt O75676)
FGFR4 (human) = FGFR4 (human) (UniProt P22455)
[2] = test system: ABL1 (human), P00519 [T315I]
AURKA (human) = AURKA (human) (UniProt O14965)
KDR (human) = KDR (human) (UniProt P35968)
BRSK2 (human) = BRSK2 (human) (UniProt Q8IWQ3)
Sequence of BRSK2 (human) (Q8IWQ3 whole entry, looked up): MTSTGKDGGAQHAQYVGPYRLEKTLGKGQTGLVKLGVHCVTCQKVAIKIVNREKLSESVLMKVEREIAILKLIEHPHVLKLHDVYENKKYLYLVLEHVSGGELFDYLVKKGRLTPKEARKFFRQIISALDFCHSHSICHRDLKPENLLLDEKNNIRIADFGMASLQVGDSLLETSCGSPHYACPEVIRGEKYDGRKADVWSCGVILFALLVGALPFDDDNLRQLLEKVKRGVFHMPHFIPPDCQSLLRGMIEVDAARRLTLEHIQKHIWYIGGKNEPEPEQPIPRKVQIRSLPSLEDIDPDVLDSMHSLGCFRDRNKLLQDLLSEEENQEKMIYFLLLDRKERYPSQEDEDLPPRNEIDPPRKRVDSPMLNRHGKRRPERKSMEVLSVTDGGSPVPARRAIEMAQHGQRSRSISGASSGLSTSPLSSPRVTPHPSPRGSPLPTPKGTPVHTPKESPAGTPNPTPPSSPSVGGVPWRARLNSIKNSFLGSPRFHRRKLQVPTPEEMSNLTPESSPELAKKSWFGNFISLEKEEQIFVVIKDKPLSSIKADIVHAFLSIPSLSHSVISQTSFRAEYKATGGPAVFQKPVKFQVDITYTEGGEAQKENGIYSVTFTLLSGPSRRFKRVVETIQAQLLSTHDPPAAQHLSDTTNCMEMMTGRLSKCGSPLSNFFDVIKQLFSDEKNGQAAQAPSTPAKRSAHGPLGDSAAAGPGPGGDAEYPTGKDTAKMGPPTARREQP

CAMK4 (human) = CAMK4 (human) (UniProt Q16566)
MAPK1 (human) = MAPK1 (human) (UniProt P28482)
FLT3 (human) = FLT3 (human) (UniProt P36888)
Sequence of FLT3 (human) (P36888 whole entry, looked up): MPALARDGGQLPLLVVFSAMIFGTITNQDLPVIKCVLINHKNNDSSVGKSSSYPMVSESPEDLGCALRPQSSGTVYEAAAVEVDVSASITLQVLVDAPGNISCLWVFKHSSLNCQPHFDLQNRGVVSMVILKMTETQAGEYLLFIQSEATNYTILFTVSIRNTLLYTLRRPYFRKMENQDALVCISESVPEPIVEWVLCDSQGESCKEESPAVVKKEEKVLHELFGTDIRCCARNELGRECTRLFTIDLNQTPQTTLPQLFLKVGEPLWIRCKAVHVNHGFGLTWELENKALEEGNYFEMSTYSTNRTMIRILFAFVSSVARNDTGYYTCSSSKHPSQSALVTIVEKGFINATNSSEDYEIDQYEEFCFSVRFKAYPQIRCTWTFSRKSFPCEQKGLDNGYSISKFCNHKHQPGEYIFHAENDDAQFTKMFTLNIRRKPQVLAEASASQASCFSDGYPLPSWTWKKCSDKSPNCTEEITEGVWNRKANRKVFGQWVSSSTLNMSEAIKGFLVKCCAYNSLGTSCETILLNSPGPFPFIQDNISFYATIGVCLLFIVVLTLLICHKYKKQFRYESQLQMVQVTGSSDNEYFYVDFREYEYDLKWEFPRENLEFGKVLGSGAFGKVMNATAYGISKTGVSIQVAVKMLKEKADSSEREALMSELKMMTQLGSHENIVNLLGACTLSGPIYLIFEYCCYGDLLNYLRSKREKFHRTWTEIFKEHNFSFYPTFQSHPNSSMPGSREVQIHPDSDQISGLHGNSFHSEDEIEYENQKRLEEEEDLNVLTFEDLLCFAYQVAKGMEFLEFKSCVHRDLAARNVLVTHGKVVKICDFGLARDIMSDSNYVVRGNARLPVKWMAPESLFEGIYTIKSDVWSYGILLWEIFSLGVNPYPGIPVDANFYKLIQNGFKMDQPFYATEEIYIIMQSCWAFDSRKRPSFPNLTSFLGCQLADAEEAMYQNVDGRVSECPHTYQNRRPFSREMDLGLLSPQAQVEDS

MARK3 (human) = MARK3 (human) (UniProt P27448)
Sequence of MARK3 (human) (P27448 whole entry, looked up): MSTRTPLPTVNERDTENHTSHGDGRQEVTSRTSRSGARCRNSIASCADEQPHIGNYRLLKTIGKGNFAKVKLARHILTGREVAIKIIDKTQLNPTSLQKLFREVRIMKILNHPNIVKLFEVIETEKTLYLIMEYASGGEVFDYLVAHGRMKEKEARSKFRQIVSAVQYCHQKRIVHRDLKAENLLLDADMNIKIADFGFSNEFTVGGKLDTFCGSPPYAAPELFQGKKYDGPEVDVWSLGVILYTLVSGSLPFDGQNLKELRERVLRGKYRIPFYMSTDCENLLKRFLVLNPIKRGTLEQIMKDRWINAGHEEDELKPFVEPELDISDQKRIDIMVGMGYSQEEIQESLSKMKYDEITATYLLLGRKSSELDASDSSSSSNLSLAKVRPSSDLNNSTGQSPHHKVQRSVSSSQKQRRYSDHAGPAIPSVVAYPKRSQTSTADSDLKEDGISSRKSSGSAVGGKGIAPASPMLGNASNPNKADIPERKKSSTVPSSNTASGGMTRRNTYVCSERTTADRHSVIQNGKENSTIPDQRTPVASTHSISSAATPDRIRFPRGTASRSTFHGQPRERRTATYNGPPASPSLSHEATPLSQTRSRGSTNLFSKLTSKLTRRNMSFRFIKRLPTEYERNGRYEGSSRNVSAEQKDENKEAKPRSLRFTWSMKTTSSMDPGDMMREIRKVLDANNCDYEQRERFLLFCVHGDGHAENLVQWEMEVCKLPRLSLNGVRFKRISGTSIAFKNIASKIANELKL

HCK (human) = HCK (human) (UniProt P08631)
DCLK2 (human) = DCLK2 (human) (UniProt Q8N568)
MAP4K4 (human) = MAP4K4 (human) (UniProt O95819)

Sequence of RPS6KA1 KD1 KD2 (human) (Q15418 whole entry, looked up): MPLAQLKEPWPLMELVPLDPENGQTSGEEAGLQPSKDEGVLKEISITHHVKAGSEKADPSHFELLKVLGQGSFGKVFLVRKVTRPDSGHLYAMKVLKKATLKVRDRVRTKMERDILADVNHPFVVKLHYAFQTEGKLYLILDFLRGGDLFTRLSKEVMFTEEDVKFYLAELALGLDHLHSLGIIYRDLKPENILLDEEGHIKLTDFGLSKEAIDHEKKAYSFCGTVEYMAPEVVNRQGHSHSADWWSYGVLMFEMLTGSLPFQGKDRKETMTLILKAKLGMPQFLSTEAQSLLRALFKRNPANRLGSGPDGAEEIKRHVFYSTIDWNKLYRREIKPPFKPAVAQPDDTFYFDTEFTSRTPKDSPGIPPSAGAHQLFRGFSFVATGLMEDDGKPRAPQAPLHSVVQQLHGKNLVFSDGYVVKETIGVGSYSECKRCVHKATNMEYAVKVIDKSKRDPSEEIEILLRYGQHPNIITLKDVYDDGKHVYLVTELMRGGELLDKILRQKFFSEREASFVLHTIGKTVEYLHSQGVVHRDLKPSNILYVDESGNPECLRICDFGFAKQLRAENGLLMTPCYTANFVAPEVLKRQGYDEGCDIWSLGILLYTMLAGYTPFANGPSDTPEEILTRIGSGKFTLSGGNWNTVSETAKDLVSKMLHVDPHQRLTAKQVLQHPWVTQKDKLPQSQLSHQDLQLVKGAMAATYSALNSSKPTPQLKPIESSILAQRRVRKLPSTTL

inhibition (RPS6KA1 KD1 KD2 (human); compound 0.1 µM): -15.2% | inhibition (RPS6KA1 KD1 KD2 (human); compound 1.0 µM): -0.8% | inhibition (FYN (human); compound 0.1 µM): -11.5% | inhibition (FYN (human); compound 1.0 µM): -2.5% | inhibition (SRC (human); compound 0.1 µM): -0.3% | inhibition (SRC (human); compound 1.0 µM): 4.8% | inhibition (PRKCB1 (human); compound 1.0 µM): 0.9% | inhibition ([1]; compound 0.1 µM): 4.6% | inhibition ([1]; compound 1.0 µM): 9.3% | inhibition (AKT3 (human); compound 0.1 µM): 6.4% | inhibition (AKT3 (human); compound 1.0 µM): -5.8% | inhibition (ROCK2 (human); compound 0.1 µM): -6.7% | inhibition (ROCK2 (human); compound 1.0 µM): -5.4% | inhibition (BTK (human); compound 0.1 µM): -2.1% | inhibition (BTK (human); compound 1.0 µM): 22% | inhibition (RAF1 (human); compound 0.1 µM): 5.1% | inhibition (RAF1 (human); compound 1.0 µM): 1.4% | inhibition (AKT1 (human); compound 0.1 µM): -1.3% | inhibition (AKT1 (human); compound 1.0 µM): 0.7% | inhibition (PRKG1 (human); compound 0.1 µM): 4.3% and 6.4% | inhibition (PRKG1 (human); compound 1.0 µM): -3.3% and -9.8% | inhibition (BMX (human); compound 0.1 µM): -7.2% | inhibition (BMX (human); compound 1.0 µM): 8.8% | inhibition (PIM2 (human); compound 0.1 µM): -2.1% | inhibition (PIM2 (human); compound 1.0 µM): 4.7% | inhibition (PRKCH (human); compound 0.1 µM): -8.3% | inhibition (PRKCH (human); compound 1.0 µM): -5.7% | inhibition (FGFR2 (human); compound 0.1 µM): 18.3% | inhibition (FGFR2 (human); compound 1.0 µM): 64.7% | inhibition (CSNK1A1 (human); compound 0.1 µM): -8.6% | inhibition (CSNK1A1 (human); compound 1.0 µM): -0.9% | inhibition (CHEK1 (human); compound 0.1 µM): 2% | inhibition (CHEK1 (human); compound 1.0 µM): 2.5% | inhibition (RPS6KA3 KD1 KD2 (human); compound 0.1 µM): -9.2% | inhibition (RPS6KA3 KD1 KD2 (human); compound 1.0 µM): -1.3% | inhibition (EGFR (human)): -5.8% | inhibition (SGK3 (human); compound 0.1 µM): -10.4% | inhibition (SGK3 (human); compound 1.0 µM): 6.2% | inhibition (NEK2 (human); compound 0.1 µM): -5.7% | inhibition (NEK2 (human); compound 1.0 µM): -0.9% | inhibition (RPS6KA4 KD1 KD2 (human); compound 0.1 µM): -2.5% | inhibition (RPS6KA4 KD1 KD2 (human); compound 1.0 µM): -1.8% | inhibition (FGFR4 (human); compound 0.1 µM): -0.6% | inhibition (FGFR4 (human); compound 1.0 µM): 15.7% | inhibition ([2]; compound 0.1 µM): 7.1% | inhibition ([2]; compound 1.0 µM): 4.4% | inhibition (AURKA (human); compound 0.1 µM): 15.8% | inhibition (AURKA (human); compound 1.0 µM): 48% | inhibition (KDR (human); compound 0.1 µM): 7.9% | inhibition (KDR (human); compound 1.0 µM): 28.2% | inhibition (BRSK2 (human); compound 0.1 µM): 1.5% | inhibition (BRSK2 (human); compound 1.0 µM): 2.5% | inhibition (CAMK4 (human); compound 0.1 µM): -0.1% | inhibition (CAMK4 (human); compound 1.0 µM): 3.5% | inhibition (MAPK1 (human); compound 0.1 µM): -2.4% | inhibition (MAPK1 (human); compound 1.0 µM): -1.9% | inhibition (FLT3 (human); compound 0.1 µM): 1.3% | inhibition (FLT3 (human); compound 1.0 µM): 24.2% | inhibition (MARK3 (human); compound 0.1 µM): -7.9% | inhibition (MARK3 (human); compound 1.0 µM): -4.1% | inhibition (HCK (human); compound 0.1 µM): -5.1% | inhibition (HCK (human); compound 1.0 µM): 1.6% | inhibition (DCLK2 (human); compound 0.1 µM): -6.4% | inhibition (DCLK2 (human); compound 1.0 µM): -2.5% | inhibition (MAP4K4 (human); compound 0.1 µM): -2% | inhibition (MAP4K4 (human); compound 1.0 µM): 10.6%
Compound: Cn1cc(-c2cnc3ccc4ccc(CS(=O)(=O)CCc5ccccn5)cc4c(=O)c3c2)cn1

inhibition (RPS6KA1 KD1 KD2 (human); compound 0.1 µM): 8.6% | inhibition (RPS6KA1 KD1 KD2 (human); compound 1.0 µM): 0% | inhibition (FYN (human); compound 0.1 µM): 4.37% | inhibition (FYN (human); compound 1.0 µM): 15.1% | inhibition (SRC (human); compound 0.1 µM): 3.2% | inhibition (SRC (human); compound 1.0 µM): 2.1% | inhibition (PRKCB1 (human); compound 0.1 µM): -20.8% | inhibition (PRKCB1 (human); compound 1.0 µM): -18.2% | inhibition ([1]; compound 0.1 µM): 1.4% | inhibition (AKT3 (human); compound 0.1 µM): 2% | inhibition (ROCK2 (human); compound 0.1 µM): 3.6% | inhibition (ROCK2 (human); compound 1.0 µM): -1.6% | inhibition (BTK (human); compound 1.0 µM): 65% | inhibition (RAF1 (human); compound 0.1 µM): 5.4% | inhibition (RAF1 (human); compound 1.0 µM): -0.8% | inhibition (AKT1 (human); compound 0.1 µM): 12.6% | inhibition (AKT1 (human); compound 1.0 µM): 5.2% | inhibition (PRKG1 (human); compound 0.1 µM): -3.8% and -2.5% | inhibition (PRKG1 (human); compound 1.0 µM): -2.7% | inhibition (BMX (human); compound 0.1 µM): -17.3% | inhibition (BMX (human); compound 1.0 µM): -2.8% | inhibition (PIM2 (human); compound 0.1 µM): 25.2% | inhibition (PIM2 (human); compound 1.0 µM): 16.7% | inhibition (PRKCH (human); compound 0.1 µM): 3.1% | inhibition (PRKCH (human); compound 1.0 µM): 1.4% | inhibition (FGFR2 (human); compound 0.1 µM): 3% | inhibition (CSNK1A1 (human); compound 0.1 µM): -5% | inhibition (CSNK1A1 (human); compound 1.0 µM): -11% | inhibition (CHEK1 (human); compound 0.1 µM): 1.1% | inhibition (CHEK1 (human); compound 1.0 µM): 0.4% | inhibition (RPS6KA3 KD1 KD2 (human); compound 0.1 µM): 0.2% | inhibition (RPS6KA3 KD1 KD2 (human); compound 1.0 µM): -6% | inhibition (EGFR (human)): -4.8% | inhibition (SGK3 (human); compound 0.1 µM): 0.3% | inhibition (SGK3 (human); compound 1.0 µM): -0.7% | inhibition (NEK2 (human); compound 0.1 µM): 2.7% | inhibition (NEK2 (human); compound 1.0 µM): -2.2% | inhibition (RPS6KA4 KD1 KD2 (human); compound 0.1 µM): 0.2% | inhibition (RPS6KA4 KD1 KD2 (human); compound 1.0 µM): -17.3% | inhibition (FGFR4 (human); compound 0.1 µM): -8.7% | inhibition ([2]; compound 0.1 µM): 3.3% | inhibition (AURKA (human); compound 0.1 µM): 14.5% | inhibition (AURKA (human); compound 1.0 µM): 26.8% | inhibition (KDR (human); compound 0.1 µM): -5.2% | inhibition (KDR (human); compound 1.0 µM): 41.8% | inhibition (BRSK2 (human); compound 0.1 µM): -1.3% | inhibition (BRSK2 (human); compound 1.0 µM): -9.5% | inhibition (CAMK4 (human); compound 0.1 µM): -1.9% | inhibition (CAMK4 (human); compound 1.0 µM): -4.2% | inhibition (MAPK1 (human); compound 0.1 µM): 1.1% | inhibition (MAPK1 (human); compound 1.0 µM): -4.4% | inhibition (FLT3 (human); compound 0.1 µM): 11% | inhibition (FLT3 (human); compound 1.0 µM): 36.8% | inhibition (MARK3 (human); compound 0.1 µM): 2% | inhibition (MARK3 (human); compound 1.0 µM): -4.3% | inhibition (HCK (human); compound 0.1 µM): -2.1% | inhibition (DCLK2 (human); compound 0.1 µM): -6% | inhibition (DCLK2 (human); compound 1.0 µM): -0.3% | inhibition (MAP4K4 (human); compound 0.1 µM): 4.1% | inhibition (MAP4K4 (human); compound 1.0 µM): 15.7%
Compound: Cn1cc(-c2cnc3ccc4ccc(CS(=O)(=O)NCC5CCCCN5)cc4c(=O)c3c2)cn1 (stereo unspecified)
